Measurements from patent US8372847B2, “Pyrazinone modulator of corticotropin-releasing factor receptor activity” (Bristol-Myers Squibb Company, priority 2008, dated 2013).

Legend:
[1] = test system: Male Sprague-Dawley rats; conditions: previous CRF1 antagonists, literature (McElroy 2002; Lelas 2004); cited from earlier work
[2] = test system: Male Sprague-Dawley rats; test: Situational anxiety behavioral model in rats (latency to exit dark cylinder into open field); format: in vivo, rat; conditions: for lowest effective dose (decrease of exit latency): PO, 60 minutes before testing
Description: Situational Anxiety Behavioral Studies in Rats. (S)-4-(1-Cyclopropyl-2-methoxyethyl)-6-(6-(difluoromethoxy)-2,5-dimethylpyridin-3-ylamino)-5-oxo-4,5-dihydropyrazine-2-carbonitrile has been evaluated in a situational anxiety model to evaluate its anxiolytic potential. In this model, rats are placed in a small, darkened chamber located in an unfamiliar open field. Vehicle-treated rats spend most of the time within the chamber, consistent with a heightened state of anxiety [Takahashi L. K. et al, Behav. Neurosci. 103: 648-654, (1989)]. This model is sensitive to anxiolytics, including benzodiazepines such as chlordiazepoxide [Yang X-M. et al, J. Pharmacol. Exp. Ther. 255: 1064-1070, (1990)]. In addition, previous CRF1 antagonists, such as DMP696 and DMP904 [McElroy J. F. et al., Psychopharmacology 165: 86-92, (2002); Lelas S. et al., J. Pharmacol. Exp. Ther. 309: 293-302, (2004)] were effective this model. The effects of (S)-4-(1-cyclopropyl-2-methoxyethyl)-6-(6-(difluoromethoxy)-2,5-dimethylpyridin-3-ylamino)-5-oxo-4,5-dihydropyrazine-2-carbonitrile were compared with those of anxiolytic standards chlordiazepoxide (Librium®) and diazepam (Valium®) in this model. Male Sprague-Dawley rats weighing 180-300 g were purchased from Charles River Laboratories (Wilmington, Mass.). The rats were housed individually in suspended wire cages in colony rooms maintained at a constant temperature (21±2° C.) and humidity (50±10%). The rooms were illuminated 12 hours per day. The rats had ad libitum access to food and water throughout the studies. Behavioral studies were conducted between 0600 and 1300 h. Animals were maintained in accordance with the guidelines of the Animal Care and Use Committee of the Bristol-Myers Squibb Company, the “Guide for Care and Use of Laboratory Animals” (Institute of Animal Laboratory Resources, 1996), and the guidelines published in the National Institutes of Health Guide for the Care and Use of Laboratory Animals. Research protocols were approved by the Bristol-Myers Squibb Company Animal Care and Use Committee. All compounds were prepared in 0.25% methylcellulose and administered PO. Chlordiazepoxide, diazepam, and desipramine were purchased from Sigma Chemical Company. (S)-4-(1-Cyclopropyl-2-methoxyethyl)-6-(6-(difluoromethoxy)-2,5-dimethylpyridin-3-ylamino)-5-oxo-4,5-dihydropyrazine-2-carbonitrile was dosed in the volume of 2 ml/kg. All standards were dosed in the volume of 2 ml/kg. For all tests, data were analyzed by analysis of variance, followed by Dunnett's t-tests for individual comparisons. The significance value was set at 0.05. The data are presented in the text and figures as mean±standard error of the mean (SEM). Male Sprague-Dawley rats were habituated to handling and dosing the day before testing. On the day of testing, all compounds were administered PO by gavage 60 minutes before behavioral testing. To initiate testing, each animal was placed in a small galvanized steel cylinder (14 cm length, 10 cm diameter), which was placed lengthwise against one wall of an illuminated open field (106 cm length×92 cm width×50 cm height). The open field was illuminated by a 60-W incandescent bulb and illumination was titrated by a powerstat transformer to a 30-lux reading at the entrance to the cylinder. Behavior was assessed for 15 minutes by a trained observer unaware of treatment assignment. The latency of the animal to exit the cylinder, defined by the placement of all four paws into the open field, and explore the open field was recorded (in seconds). […] The Plexiglas chamber and the cylinder were cleaned with 1.0% glacial acetic acid between animals to prevent olfactory cues from influencing the behavior of subsequently tested animals. Following behavioral testing, animals were sacrificed and plasma samples and brains were taken for analysis of plasma exposure and central receptor occupancy.

[3] = 3.0 mg/kg PO, benzodiazepine standard studies
[4] = 10 mg/kg PO, benzodiazepine standard studies

| SMILES | effectiveness in the situational anxiety model [1] | decrease in exit latency relative to vehicle-treated controls ([2]; 1.0 mg/kg PO, benzodiazepine standard study) | decrease in exit latency relative to vehicle-treated controls [2, 3] | decrease in exit latency relative to vehicle-treated controls [2, 4] | lowest effective dose (decrease of exit latency) [2] | decrease in exit latency relative to vehicle-treated controls ([2]; 30 mg/kg PO, benzodiazepine standard study) | decrease in exit latency relative to vehicle-treated controls ([2]; 100 mg/kg PO, benzodiazepine standard study) |
| --- | --- | --- | --- | --- | --- | --- | --- |
| CCC(CC)Nc1cc(C)nc2c(-c3ccc(OC)cc3C)c(C)nn12 [DMP904] | effective | – | – | – | – | – | – |
| CN1C(=O)CN=C(c2ccccc2)c2cc(Cl)ccc21 [diazepam] | – | 62% | 69% | 91% | 1.0 mg/kg | – | – |
| CNC1=Nc2ccc(Cl)cc2C(c2ccccc2)=[N+]([O-])C1 [chlordiazepoxide] | – | – | 58% | 97% | 3.0 mg/kg | 72% | 54% |
